Measured values: the supplement of paper PMC9663587

Assays:
Experiment in all cases: GR value, 72 h; higher = faster growth (1 = untreated, <0 = killing);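 note: breast cancer and non-malignant breast epithelial lines, nine half-log doses, viable cells counted by Hoechst and LIVE/DEAD dye imaging versus time-zero plates and DMSO controls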
[1] = compound: CCc1cnn2c(NCc3ccc[n+]([O-])c3)cc(N3CCCC[C@H]3CCO)nc12
Neratinib/HKI272 = compound: CCOc1cc2ncc(C#N)c(Nc3ccc(OCc4ccccn4)c(Cl)c3)c2cc1NC(=O)/C=C/CN(C)C [Neratinib/HKI272]
[2] = compound: CCN1CCN(Cc2ccc(Nc3ncc(F)c(-c4cc(F)c5nc(C)n(C(C)C)c5c4)n3)nc2)CC1
THZ531 = compound: CN(C)C/C=C/C(=O)Nc1ccc(C(=O)N2CCC[C@@H](Nc3ncc(Cl)c(-c4c[nH]c5ccccc45)n3)C2)cc1 [THZ531]
LEE011/Ribociclib = compound: CN(C)C(=O)c1cc2cnc(Nc3ccc(N4CCNCC4)cn3)nc2n1C1CCCC1 [LEE011/Ribociclib]
THZ1 = compound: CN(C)C/C=C/C(=O)Nc1ccc(C(=O)Nc2cccc(Nc3ncc(Cl)c(-c4c[nH]c5ccccc45)n3)c2)cc1 [THZ1]

HCC1187 gave a GR value ([1]; 0.1 µM) of -0.797 GR, a GR value ([1]; 0.3162 µM) of -0.791 GR and a GR value ([1]; 1 µM) of -0.761 GR. For the same cell line, the GR value (Neratinib/HKI272; 0.0003162 µM) was 0.994 GR, the GR value (Neratinib/HKI272; 0.001 µM) was 0.99 GR and the GR value (Neratinib/HKI272; 0.003162 µM) was 0.792 GR. For the same cell line, the GR value (Neratinib/HKI272; 0.01 µM) was 1.07 GR, the GR value (Neratinib/HKI272; 0.03162 µM) was 0.979 GR and the GR value (Neratinib/HKI272; 0.1 µM) was 0.78 GR. For the same cell line, the GR value (Neratinib/HKI272; 0.3162 µM) was 0.869 GR, the GR value (Neratinib/HKI272; 1 µM) was 0.653 GR and the GR value (Neratinib/HKI272; 3.162 µM) was 0.484 GR. The GR value ([2]; 0.001 µM) was 0.974 GR, the GR value ([2]; 0.003162 µM) was 0.907 GR and the GR value ([2]; 0.01 µM) was 0.898 GR. The GR value ([2]; 0.03162 µM) was 0.971 GR, the GR value ([2]; 0.1 µM) was 1.01 GR and the GR value ([2]; 0.3162 µM) was 1 GR. It also gave a GR value ([2]; 1 µM) of 0.849 GR, a GR value ([2]; 3.162 µM) of 0.69 GR and a GR value ([2]; 10 µM) of 0.297 GR. For the same cell line, the GR value (THZ531; 0.0001 µM) was 0.932 GR, the GR value (THZ531; 0.0003162 µM) was 1.02 GR and the GR value (THZ531; 0.001 µM) was 0.99 GR. It also gave a GR value (THZ531; 0.003162 µM) of 1.04 GR, a GR value (THZ531; 0.01 µM) of 0.976 GR and a GR value (THZ531; 0.03162 µM) of 0.879 GR. The GR value (THZ531; 0.1 µM) was -0.437 GR, the GR value (THZ531; 0.3162 µM) was -0.852 GR and the GR value (LEE011/Ribociclib; 0.001 µM) was 1.01 GR. For the same cell line, the GR value (LEE011/Ribociclib; 0.003162 µM) was 0.914 GR, the GR value (LEE011/Ribociclib; 0.01 µM) was 0.863 GR and the GR value (LEE011/Ribociclib; 0.03162 µM) was 1.02 GR. It also gave a GR value (LEE011/Ribociclib; 0.1 µM) of 0.922 GR, a GR value (LEE011/Ribociclib; 0.3162 µM) of 0.984 GR and a GR value (LEE011/Ribociclib; 1 µM) of 0.933 GR. The GR value (LEE011/Ribociclib; 3.162 µM) was 0.963 GR, the GR value (LEE011/Ribociclib; 10 µM) was 0.933 GR and the GR value (THZ1; 0.0001 µM) was 0.932 GR. For the same cell line, the GR value (THZ1; 0.0003162 µM) was 1.51 GR, the GR value (THZ1; 0.001 µM) was 0.963 GR and the GR value (THZ1; 0.003162 µM) was 0.885 GR. The GR value (THZ1; 0.01 µM) was 0.645 GR, the GR value (THZ1; 0.03162 µM) was 0.0807 GR and the GR value (THZ1; 0.1 µM) was -0.731 GR. The GR value (THZ1; 0.3162 µM) was -0.852 GR and the GR value (THZ1; 1 µM) was -0.8 GR.
